Experimental data published in patent publication US20120003661A1, “METHODS AND DEVICES FOR THE SELECTIVE DETECTION OF MICROORGANISMS” (C3 JIAN, INC., priority 2010, published 2012).
Entries after “also recorded” stand apart in the source; their conditions may differ. Like-named read-outs stand apart in the source and are kept apart here.

Tested on: bacteria, fungi, and/or yeasts
Type: binding
[1] = microorganism(s) that the targeting peptide binds, as listed in Table 2
[2] = microorganism(s) the targeting peptide binds, as listed in Table 2
[3] = microorganism(s) listed as target(s) of the targeting peptide, wrapped target lists given cell by cell

Row | Substance | Target(s) [2] | Target(s) [3] | also measured
1 | PF-C194 (NTNDLLQAFELMGLGMAGVFIVLGILYIVAELLIKIFPVNN) | – | – | Target(s) [1]: A. naeslundii, F. nucleatum, P. gingivalis,; also recorded: S. mutans, T. denticola
2 | PF-C273 (KNMLKRRMKQKRLFDEEDRLRVLSKYTKSYY) | – | – | Target(s) [1]: A. naeslundii, P. gingivalis, S. mutans,; also recorded: T. denticola
3 | PF-C095 (LLALNMNEDTYYFELFFIFDNQNKKWLIFDLKERG) | – | – | Target(s) [1]: A. naeslundii, F. nucleatum, P. gingivalis,; also recorded: S. mutans
4 | 1T-188 (HRKDVYKK) | S. sanguinis | – | –
5 | PF-C098 (PETKGKVSAFVFGIVVANVIAVVYILYMLREIGIIQ) | – | – | Target(s) [1]: A. naeslundii, F. nucleatum, P. gingivalis,; also recorded: S. mutans, T. denticola
6 | 1T-286 (LGFFNNKADLVKADTERDNRMSSLKIKDL) | – | S. sanguinis | –
7 | PF-159 (TMAFVEKAQLRVPVGDDLPV) | – | S. epidermidis | –
8 | TT-309 (EPLPLTKYDKKDTEMKKVFKEILAGKVGYEKEEE) | – | F. nucleatum | –
9 | 1T-148 (IVELDDTTILERALSMLGEANA) | A. naeslundii, F. nucleatum, P. gingivalis,; also recorded: T. denticola, S. gordonii,; also recorded: S. mitis, S. mutans, S. oralis,; also recorded: S. salivarious, S. sanguinis | – | –
10 | PF-153 (GILARADCSQIA) | – | M. luteus, P. mirabilis, E. coli, and MRSA | –
11 | PF-043 (MIKNETAYQMNELLVIRSAYAK) | – | M. luteus, C. jejuni | –
12 | 1T-6 (KFINGVLSQFVLERK) | S. mutans | – | –
13 | PF-C259 (AEIQPHCLSVL) | – | – | Target(s) [1]: F. nucleatum, S. mutans
14 | 1T-298 (ILNKKPKLPLWKLGKNYFRRFYVLPTFLA) | – | A. naeslundii, F. nucleatum, P. gingivalis,; also recorded: T. denticola, S. gordonii,; also recorded: S. mitis, S. mutans, S. oralis,; also recorded: S. salivarious, S. sanguinis | –
15 | 1T-23 (PALVDLSNKEAVWAVLDDHS) | S. mutans, P. aeruginosa | – | –
16 | PF-066 (IKGTVKAVDETTVVITVNGHGTELTFEKPAIKQVDPS) | – | M. luteus, E. coli, C. jeikeium | –
17 | 1T-101 (RLRVGRATDLPLTSFAVGVVRNLPDAPAH) | A. naeslundii, P. gingivalis, S. epidermidis,; also recorded: S. gordonii, S. mitis,; also recorded: S. mutans, S. oralis, S. sanguinis | – | –
18 | 1T-299 (SMLTSFLRSKNTRSLKMYKDVHF) | – | A. naeslundii, F. nucleatum, S. epidermidis,; also recorded: S. gordonii, S. mitis,; also recorded: S. mutans, S. oralis, S. salivarious,; also recorded: S. sanguinis | –
19 | 1T-142 (FTQGIKRIVLKRLKED) | A. naeslundii, F. nucleatum, P. gingivalis,; also recorded: T. denticola, S. gordonii,; also recorded: S. mitis, S. mutans, S. oralis,; also recorded: S. salivarious, S. sanguinis | – | –
20 | PF-C069 (NALMLREMQLAKNIKVEVTDVLSNKKYC) | – | – | Target(s) [1]: A. naeslundii, F. nucleatum, P. gingivalis,; also recorded: S. mutans, T. denticola
21 | PF-157 (HTAVVWLAGVSGCVALSHCEPA) | – | S. epidermidis, M. luteus, P. mirabilis,; also recorded: E. coli, P. aeruginosa,; also recorded: C. albicans, MRSA, S. pneumoniae,; also recorded: E. faecalis, C. jeikeium,; also recorded: C. jejuni | –
22 | 1T-124 (LFDERNKIA) | S. mitis, S. mutans, S. oralis | – | –
23 | TT-305 (ARNALNMRDVPVDAAIIGIIDGMDEE) | – | F. nucleatum | –
24 | 1T-179 (TCYPLIQRKTDRAYEA) | A. naeslundii, F. nucleatum, P. gingivalis,; also recorded: T. denticola, S. gordonii,; also recorded: S. mitis, S. mutans, S. oralis,; also recorded: S. salivarious, S. sanguinis | – | –

Row | Substance | Target(s) [2] | Target(s) [3] | also measured
25 | 1T-166 (AQSAGQIKRKSKVRIHV) | A. naeslundii, F. nucleatum, P. gingivalis,; also recorded: S. epidermidis, S. gordonii,; also recorded: S. mitis, S. mutans, S. oralis,; also recorded: S. salivarious, S. sanguinis | – | –
26 | PF-060 (HSSHL) | – | C. albicans hyphae; also recorded: E. coli, C. albicans, C. jeikeium | –
27 | 1T-279 (FVLRTKHCFY) | – | A. naeslundii, F. nucleatum, P. gingivalis,; also recorded: S. gordonii, S. mitis,; also recorded: S. mutans, S. oralis, S. salivarious,; also recorded: S. sanguinis | –
28 | PF-617 (PMNAAEPE) | – | yeast and hyphal forms | –
29 | PF-064 (DYYGKE) | – | E. coli | –
30 | PF-636 (LVRLA) | – | C. albicans hyphae | –
31 | PF-797 (WYYFDNNGYM) | – | – | Target(s) [1]: S. mutans
32 | 1T-278 (SINSSAGIQPHCLSSSFVLRTKHCFY) | – | A. naeslundii, F. nucleatum, P. gingivalis,; also recorded: S. gordonii, S. mitis,; also recorded: S. mutans, S. oralis, S. salivarious,; also recorded: S. sanguinis | –
33 | 1T-55 (NHKTLKEWKAKWGPEAVESWATLLG) | C. xerosis, P. aeruginosa | – | –
34 | 1T-31 (NATGTDIGEVTLTLGRFS) | S. mutans, P. aeruginosa | – | –
35 | 1T-280 (TNNKNKVIIKAIKFKNKDFINLDLFIYRR) | – | A. naeslundii, F. nucleatum, P. gingivalis,; also recorded: T. denticola, S. gordonii,; also recorded: S. mitis, S. mutans, S. oralis,; also recorded: S. salivarious, S. sanguinis | –
36 | 1T-8 (FSVAACGEQRAVTFVLLIEDLI) | M. xanthus | – | –
37 | PF-149 (GKVSVLTRVPRSLGGAPANQ) | – | S. epidermidis, M. luteus, E. coli,; also recorded: MRSA, C. jeikeium | –
38 | 1T-181 (YGKESDP) | A. naeslundii, F. nucleatum, P. gingivalis,; also recorded: T. denticola, S. gordonii,; also recorded: S. mitis, S. mutans, S. oralis,; also recorded: S. salivarious, S. sanguinis | – | –
39 | 1T-183 (PLRSFVAEKAEHAFRVVRIADFDFGHS) | A. naeslundii, F. nucleatum, P. gingivalis,; also recorded: S. epidermidis, S. gordonii,; also recorded: S. mitis, S. mutans, S. oralis,; also recorded: S. salivarious, S. sanguinis | – | –
40 | 1T-118 (TASPPAPSDQGLRTAFPATLLIALAALARISR) | A. naeslundii, F. nucleatum, P. gingivalis,; also recorded: S. epidermidis, S. gordonii,; also recorded: S. mitis, S. mutans, S. oralis,; also recorded: S. salivarious, S. sanguinis | – | –
41 | PF-V (KFINGVLSQFVLERK) | – | – | Target(s) [1]: S. mutans
42 | 1T-117 (GPGVVGPAPFSRLPAHALNL) | S. mutans | – | –
43 | 1T-261 (SFEKNKIENNLKIAQAYIYIKPKPRICQA) | – | F. nucleatum, S. mutans, S. oralis,; also recorded: S. sanguinis | –
44 | PF-033 (MFIFKTTSKSHFHNNVKSLECIKIPINKNR) | – | S. epidermidis, M. luteus, E. coli,; also recorded: P. aeruginosa, C. albicans,; also recorded: MRSA, S. pneumoniae | –
45 | 1T-45 (WTKPSFTDLRLGFEVTLYFANR) | S. aureus, S. epidermidis, C. striatum,; also recorded: P. aeruginosa | – | –
46 | PF-C181 (KMRAGQVVFIYKLILVLLFYVLQKLFDLKKGCF) | – | – | Target(s) [1]: P. gingivalis
47 | 1T-93 (AMRSVNQA) | S. epidermidis, S. gordonii, S. mitis,; also recorded: S. mutans, S. oralis, S. sanguinis | – | –
48 | 1T-171 (SVRAVKPIDKTVARHFPGDFIVN) | A. naeslundii, F. nucleatum, P. gingivalis,; also recorded: S. epidermidis, S. gordonii,; also recorded: S. mitis, S. mutans, S. oralis,; also recorded: S. salivarious, S. sanguinis | – | –

Row | Substance | Target(s) [2] | Target(s) [3] | also measured
49 | PF-631 (LIIYFSKTGNTARATRQI) | – | yeast and hyphal forms | –
50 | PF-021 (FSLNFSKQKYVTVN) | – | yeast and hyphal forms; also recorded: S. epidermidis, M. luteus, P. mirabilis,; also recorded: E. coli, C. albicans, E. faecalis,; also recorded: C. jeikeium | –
51 | Rv3760 (GLITVFAGTARILQLRRAAKKTHAAALR) | – | C. albicans | –
52 | 1T-161 (NKVLQVEVMWDGSVVGRPAGVISIKSSKKG) | A. naeslundii, F. nucleatum, P. gingivalis,; also recorded: S. epidermidis, S. gordonii,; also recorded: S. mitis, S. mutans, S. oralis,; also recorded: S. salivarious, S. sanguinis | – | –
53 | 1T-291 (DMKIIKLYIKILSFLFIKYCNKKLNSVKLKA) | – | A. naeslundii, F. nucleatum, P. gingivalis,; also recorded: T. denticola, S. mitis,; also recorded: S. mutans, S. oralis | –
54 | PF-785 (MRPQHSPAGKAFVVKKITHEQS) | – | – | Target(s) [1]: Mycobacteria spp.
55 | PF-798 (ALHSKGIKVMADWVPDQMYA) | – | – | Target(s) [1]: S. mutans
56 | 1T-259 (EKLKKILLKLAVCGKAWYTL) | – | F. nucleatum, P. gingivalis, T. denticola,; also recorded: S. mitis, S. mutans, S. oralis,; also recorded: S. sanguinis | –
57 | 1T-144 (IIELHPKSWTQDWRCSFL) | A. naeslundii, F. nucleatum, P. gingivalis,; also recorded: T. denticola, S. gordonii,; also recorded: S. mitis, S. mutans, S. oralis,; also recorded: S. salivarious, S. sanguinis | – | –
58 | 1T-225 (RRSLGNSASFAEWIEYIRYLHYIIRVQFIHFFSKNKKI) | A. naeslundii, F. nucleatum, P. gingivalis,; also recorded: S. epidermidis, S. gordonii,; also recorded: S. mitis, S. mutans, S. oralis,; also recorded: S. salivarious, S. sanguinis | – | –
59 | PF-792 (ALHASGIQAI) | – | – | Target(s) [1]: S. mutans
60 | PF-C072 (KKMFSLIRKVNWIFFILFIVLDLTNVFPLIRTILFAILSRQ) | – | – | Target(s) [1]: A. naeslundii, F. nucleatum, P. gingivalis,; also recorded: S. mutans, T. denticola
61 | 1T-122 (GAIPDPVTHRVDWEEDHQTRPSR) | S. mitis | – | –
62 | PF-003 (MNNWIKVAQISVTVINEVIDIMKEKQNGGK) | – | S. epidermidis, M. luteus, P. mirabilis,; also recorded: C. albicans, MRSA, C. jeikeium | –
63 | 1T-167 (SRMSEHSPAGLVFEVGPMDKGSFIILDSYHPTVKK) | A. naeslundii, F. nucleatum, P. gingivalis,; also recorded: S. epidermidis, S. gordonii,; also recorded: S. mitis, S. mutans, S. oralis,; also recorded: S. salivarious, S. sanguinis | – | –
64 | 1T-143 (MPKRHYYKLEAKALQFGLPFAYSPIQLLK) | A. naeslundii, F. nucleatum, P. gingivalis,; also recorded: S. epidermidis, S. gordonii,; also recorded: S. mitis, S. mutans, S. oralis,; also recorded: S. salivarious, S. sanguinis | – | –
65 | PF-075 (FVNSLIMKDLSDNDMRFKYEYYNREKDT) | – | M. luteus, E. coli, P. aeruginosa,; also recorded: MRSA, C. jeikeium | –
66 | PF-151 (EEYPARVPLSGEDVTEARRH) | – | S. epidermidis, MRSA, E. faecalis,; also recorded: C. jeikeium | –
67 | 1T-7 (SQRIIEPVKSPQPYPGFSVS) | M. xanthus | – | –
68 | PF-C086 (ELFFTILSDCNELFLLHLLQQPLFYIKKGK) | – | – | Target(s) [1]: A. naeslundii, F. nucleatum, P. gingivalis,; also recorded: S. mutans, T. denticola
69 | 1T-287 (KGYPLPFQYRLNNH) | – | P. gingivalis, T. denticola, S. gordonii,; also recorded: S. mitis, S. mutans, S. oralis,; also recorded: S. salivarious, S. sanguinis | –
70 | PF-C068 (LNLFASI) | – | – | Target(s) [1]: A. naeslundii, F. nucleatum, S. mutans
71 | 1T-158 (WENKPSPLGSIKKLQGLVYRLIGYRHFWV) | A. naeslundii, F. nucleatum, P. gingivalis,; also recorded: S. epidermidis, S. gordonii,; also recorded: S. mitis, S. mutans, S. oralis,; also recorded: S. salivarious, S. sanguinis | – | –
